# Source: ChEMBL document CHEMBL4800722, “Data for DCP probe BI 605906” (2021)
# Key:
# [1] = target: AMPK alpha2/beta1/gamma1 (Homo sapiens) (UniProt P54646+P54619+Q9Y478); assay: AMPK A2B1G1 Invitrogen Lab (UK) kinase screen (BI); format: protein-complex assay; conditions: Compound concentration 1.0 uM
# [2] = target: Dual specificity mitogen-activated protein kinase kinase 2 (Homo sapiens) (UniProt P36507); conditions: Compound concentration 1.0 uM
# [3] = target: High affinity nerve growth factor receptor (Homo sapiens) (UniProt P04629); assay: NTRK1 Invitrogen Lab (UK) kinase screen (BI)
# [4] = target: Phosphatidylinositol 3-kinase C2 domain-containing subunit gamma (Homo sapiens) (UniProt O75747); conditions: Compound concentration 1.0 uM
# Homo sapiens = species: Homo sapiens; assay: PIK3CA/PIK3R3 Invitrogen Lab (UK) kinase screen (BI); conditions: Compound concentration 1.0 uM
# [5] = target: 5'-AMP-activated protein kinase catalytic subunit alpha-2/beta-1/gamma-2 (Homo sapiens) (UniProt P54646+Q9UGJ0+Q9Y478); assay: AMPK (A2/B1/G2) Invitrogen Lab (UK) kinase screen (BI); format: protein-complex assay; conditions: Compound concentration 1.0 uM
# [6] = target: Serine/threonine-protein kinase BRSK1 (Homo sapiens) (UniProt Q8TDC3); conditions: Compound concentration 1.0 uM
# [7] = target: Phosphatidylinositol 4-phosphate 5-kinase type-1 gamma (Homo sapiens) (UniProt O60331); conditions: Compound concentration 1.0 uM
# [8] = target: Serine/threonine-protein kinase TAO3 (Homo sapiens) (UniProt Q9H2K8); conditions: Compound concentration 1.0 uM
# [9] = target: Insulin receptor-related protein (Homo sapiens) (UniProt P14616); conditions: Compound concentration 1.0 uM
# [10] = target: Collagenase 3 (Homo sapiens) (UniProt P45452); conditions: Compound concentration 10.0 uM
# [11] = target: Rho-associated protein kinase 1 (Homo sapiens) (UniProt Q13464); assay: ROCK1 Invitrogen Lab (UK) kinase screen (BI)
# [12] = target: Receptor-type tyrosine-protein kinase FLT3 (Homo sapiens) (UniProt P36888)
# [13] = target: Eukaryotic elongation factor 2 kinase (Homo sapiens) (UniProt O00418); conditions: Compound concentration 1.0 uM
# [14] = target: NUAK family SNF1-like kinase 2 (Homo sapiens) (UniProt Q9H093); assay: NUAK2 Invitrogen Lab (UK) kinase screen (BI); conditions: Compound concentration 1.0 uM
# [15] = target: Activin receptor type-2B (Homo sapiens) (UniProt Q13705); conditions: Compound concentration 1.0 uM
# [16] = target: Mitogen-activated protein kinase 15 (Homo sapiens) (UniProt Q8TD08); assay: ERK8 DUNDEE kinase screen (BI); conditions: Compound concentration 10.0 uM
# [17] = target: Discoidin domain-containing receptor 2 (Homo sapiens) (UniProt Q16832); conditions: Compound concentration 1.0 uM
# [18] = target: cGMP-dependent protein kinase 2 (Homo sapiens) (UniProt Q13237); conditions: Compound concentration 1.0 uM
# [19] = target: Megakaryocyte-associated tyrosine-protein kinase (Homo sapiens) (UniProt P42679); conditions: Compound concentration 1.0 uM
# [20] = target: Myotonin-protein kinase (Homo sapiens) (UniProt Q09013); conditions: Compound concentration 1.0 uM
# [21] = target: Tyrosine-protein kinase JAK2 (Homo sapiens) (UniProt O60674); conditions: Compound concentration 1.0 uM
# [22] = target: RAF proto-oncogene serine/threonine-protein kinase (Homo sapiens) (UniProt P04049); assay: RAF1 Invitrogen Lab (UK) kinase screen (BI); conditions: Compound concentration 1.0 uM
# [23] = target: CDK18/Cyclin Y (Homo sapiens) (UniProt Q07002+Q8ND76); conditions: Compound concentration 1.0 uM
# [24] = target: Protein-tyrosine kinase 2-beta (Homo sapiens) (UniProt Q14289)
# [25] = target: Activated CDC42 kinase 1 (Homo sapiens) (UniProt Q07912); conditions: Compound concentration 1.0 uM
# [26] = target: Tyrosine-protein kinase JAK1 (Homo sapiens) (UniProt P23458); conditions: Compound concentration 1.0 uM
# [27] = target: Muscle, skeletal receptor tyrosine-protein kinase (Homo sapiens) (UniProt O15146); assay: MUSK Invitrogen Lab (UK) kinase screen (BI); conditions: Compound concentration 1.0 uM
# [28] = target: Interferon-induced, double-stranded RNA-activated protein kinase (Homo sapiens) (UniProt P19525); conditions: Compound concentration 1.0 uM
# [29] = target: Sodium-dependent serotonin transporter (Homo sapiens) (UniProt P31645); conditions: Compound concentration 10.0 uM
# [30] = target: Eukaryotic elongation factor 2 kinase (Homo sapiens) (UniProt O00418); assay: EF2K DUNDEE kinase screen (BI); conditions: filed as activator, Compound concentration 10.0 uM
# [31] = target: Phosphatidylinositol 4-kinase alpha (Homo sapiens) (UniProt P42356); assay: PI4KA Invitrogen Lab (UK) kinase screen (BI); conditions: Compound concentration 1.0 uM
# [32] = target: Phosphatidylinositol 4-kinase type 2-beta (Homo sapiens) (UniProt Q8TCG2); assay: PI4K2B Invitrogen Lab (UK) kinase screen (BI); conditions: Compound concentration 1.0 uM
# [33] = target: Tyrosine-protein kinase Blk (Homo sapiens) (UniProt P51451); assay: BLK Invitrogen Lab (UK) kinase screen (BI); conditions: Compound concentration 1.0 uM
# [34] = target: Nitric oxide synthase, inducible (Mus musculus) (UniProt P29477); conditions: Compound concentration 10.0 uM
# [35] = target: Serine/threonine-protein kinase BRSK2 (Homo sapiens) (UniProt Q8IWQ3); assay: BRSK2 Invitrogen Lab (UK) kinase screen (BI); conditions: Compound concentration 1.0 uM
# [36] = target: 5-hydroxytryptamine receptor 1B (Homo sapiens) (UniProt P28222); conditions: Compound concentration 10.0 uM
# [37] = target: Calcium/calmodulin-dependent protein kinase type 1G (Homo sapiens) (UniProt Q96NX5); conditions: Compound concentration 1.0 uM
# [38] = target: Leucine-rich repeat serine/threonine-protein kinase 2 (Homo sapiens) (UniProt Q5S007); assay: LRRK2 Invitrogen Lab (UK) kinase screen (BI); conditions: Compound concentration 1.0 uM
# [39] = target: Tyrosine-protein kinase Srms (Homo sapiens) (UniProt Q9H3Y6); conditions: Compound concentration 1.0 uM
# [40] = target: Voltage-dependent L-type calcium channel subunit alpha-1C (CA+/DHPSI/RA) (Rattus norvegicus, UniProt P22002); assay: CA+/DHPSI/RA Eurofins SafetyScreen44 (BI); conditions: read-out: % Ctrl
# Voltage-dependent L-type calcium channel subunit alpha-1C (CA+/DHPSI/RA), sequence (P22002 whole entry): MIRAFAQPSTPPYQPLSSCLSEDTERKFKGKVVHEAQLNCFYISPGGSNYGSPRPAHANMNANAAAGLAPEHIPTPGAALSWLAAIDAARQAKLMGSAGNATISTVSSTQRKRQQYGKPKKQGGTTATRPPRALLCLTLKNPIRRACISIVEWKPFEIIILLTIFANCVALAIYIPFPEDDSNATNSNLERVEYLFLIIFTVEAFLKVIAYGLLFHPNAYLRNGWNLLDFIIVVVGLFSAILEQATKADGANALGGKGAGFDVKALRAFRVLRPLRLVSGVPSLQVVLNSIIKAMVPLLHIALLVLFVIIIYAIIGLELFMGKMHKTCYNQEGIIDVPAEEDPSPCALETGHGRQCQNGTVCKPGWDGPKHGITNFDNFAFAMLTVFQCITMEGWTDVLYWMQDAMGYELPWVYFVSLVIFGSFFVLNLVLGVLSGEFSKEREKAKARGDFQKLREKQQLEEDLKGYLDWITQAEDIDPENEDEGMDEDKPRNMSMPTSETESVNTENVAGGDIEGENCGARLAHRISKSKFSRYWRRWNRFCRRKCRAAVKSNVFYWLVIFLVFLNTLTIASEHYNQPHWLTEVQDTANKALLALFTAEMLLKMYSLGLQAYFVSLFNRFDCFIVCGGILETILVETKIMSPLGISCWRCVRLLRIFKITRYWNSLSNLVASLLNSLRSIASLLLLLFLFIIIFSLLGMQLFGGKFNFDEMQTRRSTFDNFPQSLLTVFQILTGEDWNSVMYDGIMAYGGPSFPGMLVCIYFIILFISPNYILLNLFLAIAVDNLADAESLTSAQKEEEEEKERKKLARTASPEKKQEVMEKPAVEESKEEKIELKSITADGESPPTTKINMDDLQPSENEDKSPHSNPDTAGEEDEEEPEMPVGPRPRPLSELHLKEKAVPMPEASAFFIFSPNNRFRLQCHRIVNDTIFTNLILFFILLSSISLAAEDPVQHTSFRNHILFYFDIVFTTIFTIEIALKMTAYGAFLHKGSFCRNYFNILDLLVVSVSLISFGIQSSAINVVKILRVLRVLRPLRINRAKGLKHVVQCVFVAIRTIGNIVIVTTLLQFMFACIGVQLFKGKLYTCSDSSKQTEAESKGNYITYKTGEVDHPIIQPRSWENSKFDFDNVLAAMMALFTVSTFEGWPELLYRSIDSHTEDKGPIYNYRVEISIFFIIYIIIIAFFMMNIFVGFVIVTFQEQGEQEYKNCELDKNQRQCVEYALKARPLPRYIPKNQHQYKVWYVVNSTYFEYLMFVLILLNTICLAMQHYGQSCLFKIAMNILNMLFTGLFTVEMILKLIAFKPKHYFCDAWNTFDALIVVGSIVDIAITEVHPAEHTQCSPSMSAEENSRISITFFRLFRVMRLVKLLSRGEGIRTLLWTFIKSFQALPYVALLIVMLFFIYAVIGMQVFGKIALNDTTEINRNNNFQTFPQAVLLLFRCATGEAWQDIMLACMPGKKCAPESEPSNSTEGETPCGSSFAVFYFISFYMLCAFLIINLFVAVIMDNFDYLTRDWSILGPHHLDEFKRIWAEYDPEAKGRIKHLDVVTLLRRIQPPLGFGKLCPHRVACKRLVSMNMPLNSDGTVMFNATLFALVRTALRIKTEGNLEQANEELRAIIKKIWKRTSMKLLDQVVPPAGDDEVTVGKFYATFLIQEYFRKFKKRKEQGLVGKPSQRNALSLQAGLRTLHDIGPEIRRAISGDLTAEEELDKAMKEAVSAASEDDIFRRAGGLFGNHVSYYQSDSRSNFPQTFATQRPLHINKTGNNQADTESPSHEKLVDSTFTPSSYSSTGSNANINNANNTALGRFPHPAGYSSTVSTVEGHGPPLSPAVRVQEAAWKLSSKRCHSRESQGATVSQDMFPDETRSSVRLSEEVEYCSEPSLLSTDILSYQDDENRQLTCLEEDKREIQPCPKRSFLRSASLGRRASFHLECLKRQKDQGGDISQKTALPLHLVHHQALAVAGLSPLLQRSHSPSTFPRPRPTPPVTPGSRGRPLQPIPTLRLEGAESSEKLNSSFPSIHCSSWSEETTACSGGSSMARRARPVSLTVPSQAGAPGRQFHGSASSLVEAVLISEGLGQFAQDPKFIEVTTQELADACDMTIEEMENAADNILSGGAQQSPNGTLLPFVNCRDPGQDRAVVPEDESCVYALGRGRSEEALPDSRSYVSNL
# High affinity nerve growth factor receptor (Homo sapiens), sequence (P04629 33-796 limits assumed): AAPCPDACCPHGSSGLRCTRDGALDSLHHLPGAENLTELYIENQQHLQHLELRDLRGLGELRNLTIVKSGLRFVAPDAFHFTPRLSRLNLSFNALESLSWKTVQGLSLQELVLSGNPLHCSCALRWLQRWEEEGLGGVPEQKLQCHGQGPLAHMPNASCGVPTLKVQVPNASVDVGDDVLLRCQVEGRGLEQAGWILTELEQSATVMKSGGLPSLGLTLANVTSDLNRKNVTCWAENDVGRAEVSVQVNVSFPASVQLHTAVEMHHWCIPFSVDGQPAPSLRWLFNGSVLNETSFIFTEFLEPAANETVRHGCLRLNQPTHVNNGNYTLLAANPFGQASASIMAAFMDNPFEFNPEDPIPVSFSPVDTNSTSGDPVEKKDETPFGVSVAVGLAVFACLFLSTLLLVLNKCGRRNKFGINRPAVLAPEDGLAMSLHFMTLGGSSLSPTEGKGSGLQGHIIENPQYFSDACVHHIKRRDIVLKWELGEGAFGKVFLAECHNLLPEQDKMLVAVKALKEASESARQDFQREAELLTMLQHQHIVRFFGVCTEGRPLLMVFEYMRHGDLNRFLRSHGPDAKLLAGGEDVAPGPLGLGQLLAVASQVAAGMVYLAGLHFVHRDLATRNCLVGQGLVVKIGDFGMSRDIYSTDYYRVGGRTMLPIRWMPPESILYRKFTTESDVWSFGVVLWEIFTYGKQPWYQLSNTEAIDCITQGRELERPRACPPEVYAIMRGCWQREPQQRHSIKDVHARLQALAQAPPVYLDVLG
# Receptor-type tyrosine-protein kinase FLT3 (Homo sapiens), sequence (P36888 whole entry): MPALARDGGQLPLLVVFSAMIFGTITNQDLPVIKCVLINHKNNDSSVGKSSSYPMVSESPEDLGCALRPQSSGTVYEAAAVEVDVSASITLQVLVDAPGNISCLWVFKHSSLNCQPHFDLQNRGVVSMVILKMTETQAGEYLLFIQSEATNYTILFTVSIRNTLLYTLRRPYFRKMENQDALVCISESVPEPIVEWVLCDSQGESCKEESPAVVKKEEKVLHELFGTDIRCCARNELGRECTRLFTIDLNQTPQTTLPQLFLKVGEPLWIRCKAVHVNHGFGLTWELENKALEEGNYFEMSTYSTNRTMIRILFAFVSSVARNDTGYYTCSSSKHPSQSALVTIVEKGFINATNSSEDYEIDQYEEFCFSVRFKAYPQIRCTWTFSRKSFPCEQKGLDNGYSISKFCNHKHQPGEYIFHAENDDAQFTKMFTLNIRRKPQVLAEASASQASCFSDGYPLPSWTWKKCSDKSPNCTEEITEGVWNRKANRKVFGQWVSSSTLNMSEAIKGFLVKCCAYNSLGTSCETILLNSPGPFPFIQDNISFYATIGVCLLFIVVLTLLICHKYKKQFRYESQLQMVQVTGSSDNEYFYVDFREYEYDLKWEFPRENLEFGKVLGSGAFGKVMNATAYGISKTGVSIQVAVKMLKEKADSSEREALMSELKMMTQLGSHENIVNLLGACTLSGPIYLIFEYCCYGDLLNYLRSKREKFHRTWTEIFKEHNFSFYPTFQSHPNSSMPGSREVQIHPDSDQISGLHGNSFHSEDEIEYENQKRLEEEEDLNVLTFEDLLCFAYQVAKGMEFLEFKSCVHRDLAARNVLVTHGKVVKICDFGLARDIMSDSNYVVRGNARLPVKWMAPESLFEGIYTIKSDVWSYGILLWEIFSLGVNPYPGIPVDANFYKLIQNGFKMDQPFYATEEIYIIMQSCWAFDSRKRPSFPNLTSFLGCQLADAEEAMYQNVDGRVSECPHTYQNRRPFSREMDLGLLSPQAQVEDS
# Protein-tyrosine kinase 2-beta (Homo sapiens), sequence (Q14289 whole entry, looked up): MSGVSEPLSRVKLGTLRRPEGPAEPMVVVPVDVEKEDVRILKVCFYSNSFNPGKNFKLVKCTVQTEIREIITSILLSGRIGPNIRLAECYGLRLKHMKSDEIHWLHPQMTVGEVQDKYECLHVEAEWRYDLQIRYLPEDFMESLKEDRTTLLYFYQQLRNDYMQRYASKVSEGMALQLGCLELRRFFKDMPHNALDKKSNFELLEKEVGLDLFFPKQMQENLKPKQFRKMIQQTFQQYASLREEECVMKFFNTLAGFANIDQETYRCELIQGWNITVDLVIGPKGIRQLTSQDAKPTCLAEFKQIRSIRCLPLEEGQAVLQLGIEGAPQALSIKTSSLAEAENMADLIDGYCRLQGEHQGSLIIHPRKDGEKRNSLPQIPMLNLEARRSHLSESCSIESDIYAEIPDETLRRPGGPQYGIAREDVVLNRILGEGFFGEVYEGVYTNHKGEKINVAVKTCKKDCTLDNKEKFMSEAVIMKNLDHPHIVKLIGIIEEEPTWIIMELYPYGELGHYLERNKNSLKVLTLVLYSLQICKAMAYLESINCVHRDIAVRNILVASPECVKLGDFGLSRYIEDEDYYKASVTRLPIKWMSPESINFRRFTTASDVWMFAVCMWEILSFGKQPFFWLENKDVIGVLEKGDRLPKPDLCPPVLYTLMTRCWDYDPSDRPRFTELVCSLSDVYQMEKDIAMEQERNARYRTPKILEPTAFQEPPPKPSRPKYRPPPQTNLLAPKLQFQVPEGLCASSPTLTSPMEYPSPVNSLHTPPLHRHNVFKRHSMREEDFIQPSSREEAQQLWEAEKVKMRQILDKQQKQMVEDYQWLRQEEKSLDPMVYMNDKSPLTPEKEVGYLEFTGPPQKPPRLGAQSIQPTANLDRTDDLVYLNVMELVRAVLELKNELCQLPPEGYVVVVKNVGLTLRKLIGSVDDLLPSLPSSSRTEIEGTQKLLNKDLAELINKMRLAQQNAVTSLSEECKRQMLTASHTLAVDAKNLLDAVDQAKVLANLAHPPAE
smiles,measurement,setting,value
CCC(F)(F)c1cc(N2CCC(S(C)(=O)=O)CC2)nc2sc(C(N)=O)c(N)c12 [BI-605906],residual activity,[1],88%
same,residual activity,[2],91%
same,residual activity,[3]; Compound concentration 1.0 uM,81%
same,residual activity,[3]; Compound concentration 10.0 uM,83%
same,residual activity,[4],90%
same,residual activity,Homo sapiens,103%
same,residual activity,[5],88%
same,residual activity,[6],92%
same,residual activity,[7],96%
same,residual activity,[8],93%
same,residual activity,[9],92%
same,residual activity,[10],90%
same,residual activity,[11]; Compound concentration 1.0 uM,88%
same,residual activity,[11]; Compound concentration 10.0 uM,47%
same,residual activity,[12]; Compound concentration 1.0 uM,71%
same,residual activity,[12]; Compound concentration 10.0 uM,38%
same,residual activity,[13],98%
same,residual activity,[14],86%
same,residual activity,[15],91%
same,residual activity,[16],63.2%
same,residual activity,[17],99%
same,residual activity,[18],108%
same,residual activity,[19],101%
same,residual activity,[20],95%
same,residual activity,[21],94%
same,residual activity,[22],78%
same,residual activity,[23],96%
same,residual activity,[24]; Compound concentration 1.0 uM,91%
same,residual activity,[24]; Compound concentration 10.0 uM,70%
same,residual activity,[25],97%
same,residual activity,[26],98%
same,residual activity,[27],84%
same,residual activity,[28],96%
same,inhibition,[29],8.94%
same,residual activity,[30],66.2%
same,residual activity,[31],84%
same,residual activity,[32],102%
same,residual activity,[33],88%
same,residual activity,[34],108%
same,residual activity,[35],102%
same,inhibition,[36],3.43%
same,residual activity,[37],90%
same,residual activity,[38],62%
same,residual activity,[39],99%
same,activity at 1 µM,[40]; compound concentration 1 uM,104% (not active)
same,activity at 3 µM,[40]; compound concentration 3 uM,94% (not active)
same,activity at 10 µM,[40]; compound concentration 10 uM,91% (not active)
same,activity at 30 µM,[40]; compound concentration 30 uM,77% (not active)
same,activity at 100 µM,[40]; compound concentration 100 uM,41.5%
